Laboratory results as given in patent US8455475B2 (Gruenenthal GmbH, priority 2009, dated 2013).

Columns and labels:
[1] = biological target: T1, rat B1R (bradykinin receptor 1) (Rattus norvegicus, UniProt P97583); assay: FLIPR Ca2+ assay (Fluo-4) on CHO K1 cells stably transfected with the B1R gene of the rat (rB1R cells): % inhibition at 10 μM / IC50, agonist Des-Arg9-bradykinin; format: cell-based; conditions: CHO-K1, rat B1R
T1 construct: expressed in transfected cells; host or cells: CHO K1 cells
T1 sequence (P97583 1-337): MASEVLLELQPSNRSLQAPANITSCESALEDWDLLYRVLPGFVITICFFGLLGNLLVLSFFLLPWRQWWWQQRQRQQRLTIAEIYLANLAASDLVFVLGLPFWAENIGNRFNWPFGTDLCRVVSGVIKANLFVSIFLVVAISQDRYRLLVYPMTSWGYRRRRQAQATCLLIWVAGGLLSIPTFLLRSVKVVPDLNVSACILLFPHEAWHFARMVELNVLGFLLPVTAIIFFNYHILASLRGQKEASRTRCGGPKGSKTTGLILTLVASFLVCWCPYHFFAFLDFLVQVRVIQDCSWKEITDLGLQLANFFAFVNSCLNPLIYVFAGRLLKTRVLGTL
Outline: (§1)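 Using a two-addition FLIPR protocol, compound (10 μM for % values; concentration series for IC50) was preincubated 10–20 min with Fluo-4-loaded B1R-expressing CHO K1 cells before EC80 agonist challenge. Suppression of Ca2+ inflow, read as peak fluorescence, is expressed relative to maximum achievable inhibition; duplicate/triplicate, ≥2 independent experiments.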

[2] = biological target: T2, human B1R (bradykinin receptor 1) (Homo sapiens, UniProt P46663); assay: FLIPR Ca2+ assay (Fluo-4) on CHO K1 cells stably transfected with the human B1R gene (hB1R cells): % inhibition at 10 μM / IC50, agonist Lys-Des-Arg9-bradykinin; format: cell-based; conditions: CHO-K1, human B1R
T2 construct: expressed in transfected cells; host or cells: CHO K1 cells
T2 sequence (P46663 1-353): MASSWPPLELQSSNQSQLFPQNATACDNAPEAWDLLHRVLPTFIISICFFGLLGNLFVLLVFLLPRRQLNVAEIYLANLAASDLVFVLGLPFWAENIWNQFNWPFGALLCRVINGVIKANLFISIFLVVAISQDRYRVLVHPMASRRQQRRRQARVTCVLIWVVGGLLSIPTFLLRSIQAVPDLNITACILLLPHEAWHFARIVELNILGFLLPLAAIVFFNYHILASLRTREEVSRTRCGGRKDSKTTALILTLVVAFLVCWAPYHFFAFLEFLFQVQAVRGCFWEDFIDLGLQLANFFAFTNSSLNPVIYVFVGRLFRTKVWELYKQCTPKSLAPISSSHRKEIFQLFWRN
Outline: as §1

Row | Compound | inhibition at 10 µM [1] [%] | inhibition at 10 µM [2] [%]
1 | CC1(C)CC(NS(=O)(=O)CCc2ccccc2Cl)c2cc(C(=O)N3CCC4(CC3)CCN(c3ccncc3)CC4)ccc21 (stereo not drawn) [IND_CC-260, 2-(2-Chlorophenyl)-N-[3,3-dimethyl-6-(3-pyridin-4-yl-3,9-diazaspiro[5.5]-undecane-9-carbonyl)-1,2-dihydro-inden-1-yl]-ethanesulfonic acid amide] | 100 | 100
2 | O=C(N[C@@H]1CCc2cc(C(=O)N3CCC4(CC3)CCN(c3ccncc3)CC4)ccc21)c1ccccc1Cl [Example H-172, 2-chloro-N-[(1R)-5-(9-pyridin-4-yl-3,9-diazaspiro[5.5]undecane-3-carbonyl)-2,3-dihydro-1H-inden-1-yl]-benzamide] | 105 | 99
3 | O=C(c1ccc2c(c1)CC[C@H]2N1Cc2cccc(Cl)c2C1=O)N1CCC2(CCN(c3ccncc3)CC2)C1 [Example H-160] | 105 | 98
4 | O=C(N[C@@H]1CCc2ccc(C(=O)N3CCC4(CCN(c5ccncc5)CC4)C3)cc21)c1c(F)cccc1C(F)(F)F [Example H-110, 2-Fluoro-N-[(1R)-6-(8-pyridin-4-yl-3,8-diazaspiro[4.5]decane-3-carbonyl)-2,3-dihydro-1H-inden-1-yl]-6-(trifluoromethyl)-benzamide] | 108 | 101
5 | O=C(c1ccc2c(c1)C(N(C(=O)c1ccccc1Cl)C1CC1)CC2)N1CCC2(CC1)CCN(c1ccc(F)cc1)CC2 (stereo not drawn) [Ind_CC-115, 2-chloro-N-cyclopropyl-N-[6-[9-(4-fluorophenyl)-3,9-diazaspiro[5.5]undecane-3-carbonyl]-2,3-dihydro-1H-inden-1-yl]-benzamide] | 64 | 22
6 | O=C(c1ccc2c(c1)[C@H](NS(=O)(=O)c1ccccc1C(F)(F)F)CC2)N1CCC2(CCN(c3ccncc3)CC2)C1 [Example H-118, N-[(1R)-6-(8-Pyridin-4-yl-3,8-diazaspiro[4.5]decane-3-carbonyl)-2,3-dihydro-1H-inden-1-yl]-2-(trifluoromethyl)-benzenesulfonic acid amide] | 101 | 100
7 | O=C(c1ccc2c(c1)[C@H](NS(=O)(=O)Cc1ccccc1Cl)CC2)N1CCC2(CCN(c3ccncc3)CC2)C1 [Example H-150, 1-(2-Chlorophenyl)-N-[(1R)-6-(8-pyridin-4-yl-3,8-diazaspiro[4.5]decane-3-carbonyl)-2,3-dihydro-1H-inden-1-yl]-methanesulfonic acid amide] | 100 | 97
8 | CN(C(=O)c1cc(C(F)(F)F)ccc1Cl)C1CCc2ccc(C(=O)N3CCC4(CC3)CCN(c3ccncc3)CC4)cc21 (stereo not drawn) [IND_CC-202, 2-Chloro-N-methyl-N-[6-(9-pyridin-4-yl-3,9-diazaspiro[5.5]undecane-3-carbonyl)-2,3-dihydro-1H-inden-1-yl]-5-(trifluoromethyl)-benzamide] | 103 | 86
9 | O=C(Cc1ccccc1Cl)N[C@@H]1CCc2ccc(C(=O)N3CCC4(CCN(c5ccncc5)CC4)C3)cc21 [Example H-151, 2-(2-Chlorophenyl)-N-[(1R)-6-(8-pyridin-4-yl-3,8-diazaspiro[4.5]decane-3-carbonyl)-2,3-dihydro-1H-inden-1-yl]-acetamide] | 103 | 99
10 | O=C(N[C@@H]1CCCc2ccc(C(=O)N3CCC4(CCN(c5ccncc5)CC4)C3)cc21)c1ccccc1Cl [Example H-11, 2-chloro-N-[(1R)-7-(8-pyridin-4-yl-3,8-diazaspiro[4.5]decane-3-carbonyl]-1,2,3,4-tetrahydro-naphthalen-1-yl]-benzamide] | 103 | 99
11 | O=C(NC1CCc2ccc(C(=O)N3CCC4(CC3)CCN(c3ccc(F)cc3)CC4)cc21)c1sccc1Cl (stereo not drawn) [Ind_CC-103, 3-chloro-N-[6-[9-(4-fluorophenyl)-3,9-diazaspiro[5.5]undecane-3-carbonyl]-2,3-dihydro-1H-inden-1-yl]-thiophene-2-carboxylic acid amide] | 62 | 93
12 | COc1cc(C)c(C(=O)NC2CCc3ccc(C(=O)N4CCC5(CC4)CCN(c4ccncc4)CC5)cc32)c(C)c1 (stereo not drawn) [Ind_CC-013, 4-methoxy-2,6-dimethyl-N-[6-(9-pyridin-4-yl-3,9-diazaspiro[5.5]undecane-3-carbonyl)-2,3-dihydro-1H-inden-1-yl]-benzamide] | 71 | 68
13 | Cc1cccc(Cl)c1S(=O)(=O)NC1CC(C)(C)c2ccc(C(=O)N3CCC4(CC3)CCN(c3ccncc3)CC4)cc21 (stereo not drawn) [IND_CC-259, 2-Chloro-N-[3,3-dimethyl-6-(3-pyridin-4-yl-3,9-diazaspiro[5.5]undecane-9-carbonyl)-1,2-dihydro-inden-1-yl]-6-methyl-benzenesulfonic acid amide] | 100 | 99
14 | O=C(NC1CCc2ccc(C(=O)N3CCC4(CC3)CCN(c3ccncc3)C4)cc21)c1ccc(F)cc1Cl (stereo not drawn) [IND_CC-263, 2-Chloro-4-fluoro-N-[6-(2-pyridin-4-yl-2,8-diazaspiro[4.5]decane-8-carbonyl)-2,3-dihydro-1H-inden-1-yl]-benzamide] | 81 | 100
15 | O=C(N[C@@H]1CCc2ccc(C(=O)N3CCC4(CCC(C(=O)N[C@H]5CN6CCC5CC6)CC4)CC3)cc21)c1ccccc1Cl [Example H-52, N-[(5R)-1-Azabicyclo[2.2.2]octan-5-yl]-3-[(3R)-3-[(2-chloro-benzoyl)amino]-2,3-dihydro-1H-indene-5-carbonyl]-3-azaspiro[5.5]undecane-9-carboxylic acid amide] | 46 | 28
16 | O=C(NC1CCc2ccc(C(=O)N3CCC4(CC3)CCN(c3ccncc3)C4)cc21)c1ccccc1Cl (stereo not drawn) [Ind_CC-101, 2-chloro-N-[6-(2-pyridin-4-yl-2,8-diazaspiro[4.5]decane-8-carbonyl)-2,3-dihydro-1H-inden-1-yl]-benzamide] | 102 | 100
17 | COc1ccc(C(=O)N[C@@H]2CCc3ccc(C(=O)N4CCC5(CC4)CCN(c4ccncc4)C5)cc32)c(Cl)c1 [Example H-60, 2-Chloro-4-methoxy-N-[(1R)-6-(3-pyridin-4-yl-3,8-diazaspiro[4.5]decane-8-carbonyl)-2,3-dihydro-1H-inden-1-yl]-benzamide] | 101 | 82
18 | O=C(NC1CCc2ccc(C(=O)N3CCC4(CCC(c5ccncc5)CC4)C3)cc21)c1ccccc1Cl (stereo not drawn) [Example H-133, 2-Chloro-N-[6-(8-pyridin-4-yl-3-azaspiro[4.5]decane-3-carbonyl)-2,3-dihydro-1H-inden-1-yl]-benzamide] | 100 | 65
19 | O=C(NC1CCc2ccc(C(=O)N3CCC4(CC3)CCN(c3ccncc3)CC4)cc21)c1cc(F)ccc1Cl (stereo not drawn) [IND_CC-220, 2-Chloro-5-fluoro-N-[6-(9-pyridin-4-yl-3,9-diazaspiro[5.5]undecane-3-carbonyl)-2,3-dihydro-1H-inden-1-yl]-benzamide] | 104 | 100
20 | O=C(NC1CCc2ccc(C(=O)N3CCC4(CCC(O)(c5ccncc5)CC4)C3)cc21)c1ccccc1Cl (stereo not drawn) [Example H-128, 2-Chloro-N-[6-(8-hydroxy-8-pyridin-4-yl-3-azaspiro[4.5]decane-3-carbonyl)-2,3-dihydro-1H-inden-1-yl]-benzamide] | 36 | 38
21 | O=C(NC1CCc2ccc(C(=O)N3CCC4(CC3)CCN(c3ccncc3)CC4)cc21)c1sccc1Cl (stereo not drawn) [Ind_CC-004, 3-chloro-N-[6-(9-pyridin-4-yl-3,9-diazaspiro[5.5]undecane-3-carbonyl)-2,3-dihydro-1H-inden-1-yl]-thiophene-2-carboxylic acid amide] | 98 | 99
22 | O=C(N[C@H]1CCCc2ccc(C(=O)N3CCC4(CCN(c5ccncc5)CC4)C3)cc21)c1ccccc1Cl [Example H-12, 2-chloro-N-[(1S)-7-(8-pyridin-4-yl-3,8-diazaspiro[4.5]decane-3-carbonyl]-1,2,3,4-tetrahydro-naphthalen-1-yl]-benzamide] | 102 | 97
23 | O=C(N[C@@H]1CCOc2c(F)cc(C(=O)N3CCC4(CCN(c5ccncc5)CC4)C3)cc21)c1ccccc1Cl [Example H-73, 2-Chloro-N-[(4R)-8-fluoro-6-(8-pyridin-4-yl-3,8-diazaspiro[4.5]decane-3-carbonyl)-3,4-dihydro-2H-chromen-4-yl]-benzamide] | 103 | 100
24 | O=C(N[C@@H]1CCOc2ccc(C(=O)N3CCC4(CCN(c5ccncc5)CC4)C3)cc21)c1ccccc1Cl [Example H-67, 2-Chloro-N-[(4R)-6-(8-pyridin-4-yl-3,8-diazaspiro[4.5]decane-3-carbonyl)-3,4-dihydro-2H-chromen-4-yl]-benzamide] | 102 | 100
